Among the test systems are T47D; HCC 2998; SN12C; MCF7; KM12; SK-MEL-5; HOP-92; A549; NCI-H23; Malme-3M; SF-539; MDA-N; EKVX; HCT-116; NCI-H226; ACHN; MOLT-4; SNB-75; UACC-257; TK-10.
Holding throughout (assay): NCI anticancer screen, dose series, 48 h

The results in this text go back to ChEMBL document CHEMBL1201862, “PubChem BioAssay data set” (2004).

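Tested at 5 concentrations; 48 h exposure; 96-well plates; endpoints linearly interpolated, else capped at highest concentration. At the GI50, growth is halved.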 The source made the active and inactive calls. No stated cut-off is given here; in the data, active = GI50 up to about 1.1 µM and inactive = higher.

Consider `O=C(Nc1ccccc1)c1cc(S(=O)(=O)Nc2nc3cccnc3[nH]2)c(SSc2cc(Cl)c(C(=O)Nc3ccccc3)cc2S(=O)(=O)Nc2nc3cccnc3[nH]2)cc1Cl`, for which the GI50 in the test on T47D, in the test on HCC 2998, in the test on SN12C, in the test with MCF7, in the test on KM12 and with SK-MEL-5 was > 100 µM (inactive) throughout. Moreover, the GI50 with HOP-92, with A549, in the test with NCI-H23, in the test on Malme-3M, with SF-539 and in the test with MDA-N was > 100 µM (inactive) each time. Also, the GI50 in the test with EKVX, in the test with HCT-116, in the test with NCI-H226, in the test on ACHN, with MOLT-4 and in the test on SNB-75 was > 100 µM (inactive) each time. In addition, the GI50 in the test with UACC-257 and with TK-10 was > 100 µM (inactive) in each case.

Turning to `COc1ccccc1NC1Oc2cc3c(cc2C(c2cc(OC)c(OC)c(OC)c2)C1C)OCO3` (stereo not given), the GI50 was 5.86 µM (inactive) in the test with T47D; 3.04 µM (inactive) in the test on HCC 2998; 5.57 µM (inactive) with SN12C; 2.65 µM (inactive) with MCF7; 1.43 µM (inactive) with KM12; 0.769 µM (active) in the test with SK-MEL-5. Further, the GI50 with HOP-92 is 3.24 µM (inactive); with A549 it was 4.53 µM (inactive); in the test on NCI-H23 it was 4.46 µM (inactive); in the test on Malme-3M, 0.383 µM (active); with SF-539, 1.7 µM (inactive); in the test with MDA-N it was 0.358 µM (active). Moreover, the GI50 with EKVX was > 26.1 µM (inactive); in the test on HCT-116, 2.42 µM (inactive); with NCI-H226, 4.35 µM (inactive); in the test with ACHN, 9.91 µM (inactive); in the test with MOLT-4, 3.8 µM (inactive); in the test on SNB-75 it was 0.951 µM (active). For the same compound, the GI50 with UACC-257 was 8.17 µM (inactive); in the test with TK-10, > 100 µM (inactive).

With `CCN(CCO)CCNc1ccc(C)c2sc3ccccc3c(=O)c12`, the GI50 with T47D was 3.01 µM (inactive); in the test with HCC 2998 it was 2.28 µM (inactive); in the test on SN12C, 5.24 µM (inactive); in the test on MCF7 it was 1.8 µM (inactive); in the test on KM12 it was 3.68 µM (inactive); in the test with SK-MEL-5, 2.59 µM (inactive). Further, the GI50 in the test with HOP-92 is 4.37 µM (inactive); in the test with A549, 4.3 µM (inactive); with NCI-H23, 8.05 µM (inactive); in the test on Malme-3M, 3.44 µM (inactive); with SF-539 it was 3.75 µM (inactive); with MDA-N it was 1.74 µM (inactive). Further, the GI50 was 12.5 µM (inactive) in the test with EKVX; 2.88 µM (inactive) in the test on HCT-116; 4 µM (inactive) in the test with NCI-H226; 4.26 µM (inactive) in the test on ACHN; 4.43 µM (inactive) with MOLT-4; 3.01 µM (inactive) in the test on SNB-75. The values for the GI50 in the test with UACC-257 and in the test with TK-10 were 2.75 µM (inactive) and 8.81 µM (inactive), respectively.

In the case of `CC(=O)OC1COC(Nc2nc(N)n(C)c(=O)c2N=O)C(OC(C)=O)C1OC(C)=O` (stereo not given), the GI50 in the test on T47D, in the test with HCC 2998, in the test with SN12C, with MCF7, in the test with KM12 and with SK-MEL-5 was > 10 µM (inactive) each time. The GI50 in the test on HOP-92, in the test on A549, in the test with NCI-H23, in the test on Malme-3M, in the test with SF-539 and with MDA-N was > 10 µM (inactive) each time. In addition, the GI50 with EKVX, in the test on HCT-116, in the test on NCI-H226, in the test on ACHN, in the test with MOLT-4 and in the test with SNB-75 was > 10 µM (inactive) in each case. Besides, the GI50 with UACC-257 and in the test with TK-10 was > 10 µM (inactive) in each case.

Take `Cc1cc(=O)oc2c(C3=NN(C=O)C(c4ccccc4)C3)c(O)ccc12` (stereo not given): the GI50 with T47D was > 100 µM (inactive); in the test with HCC 2998 it was > 87.7 µM (inactive); with SN12C it was 90.2 µM (inactive); in the test with MCF7 it was > 50.5 µM (inactive); in the test on KM12, > 100 µM (inactive); with SK-MEL-5, 56.2 µM (inactive). The GI50 is 23 µM (inactive) with HOP-92; 20.8 µM (inactive) in the test with A549; 85.9 µM (inactive) in the test with NCI-H23; > 71.9 µM (inactive) in the test on Malme-3M; 52.4 µM (inactive) with SF-539; > 54.8 µM (inactive) in the test on MDA-N. Also, the GI50 with EKVX was 72.6 µM (inactive); with HCT-116, 81.1 µM (inactive); in the test on NCI-H226, > 76 µM (inactive); with ACHN, 14.8 µM (inactive); in the test with MOLT-4, > 73.6 µM (inactive); in the test on SNB-75 it was 3.22 µM (inactive). Besides, the GI50 was 83.4 µM (inactive) in the test with UACC-257 and 57.4 µM (inactive) with TK-10.

Turning to `Cc1[nH]n(-c2ncc(C(=O)O)c(=O)[nH]2)c(=O)c1CCO`, the GI50 in the test with T47D was > 100 µM (inactive); in the test on HCC 2998, > 58.9 µM (inactive); in the test with SN12C, > 100 µM (inactive); in the test on MCF7 it was > 92.7 µM (inactive); in the test on KM12 it was > 100 µM (inactive); with SK-MEL-5 it was > 100 µM (inactive). Moreover, the GI50 in the test with HOP-92 was > 88.1 µM (inactive); in the test on A549, > 85.3 µM (inactive); in the test on NCI-H23, > 100 µM (inactive); in the test on Malme-3M, > 100 µM (inactive); in the test with SF-539, > 84.9 µM (inactive); with MDA-N, > 100 µM (inactive). Besides, the GI50 was > 100 µM (inactive) with EKVX; > 100 µM (inactive) in the test on HCT-116; > 100 µM (inactive) with NCI-H226; > 100 µM (inactive) in the test on ACHN; > 100 µM (inactive) in the test with MOLT-4; > 88.5 µM (inactive) in the test with SNB-75. Besides, the GI50 with UACC-257 and in the test with TK-10 was > 100 µM (inactive) each time.

Turning to `COc1ccc2c(c1)CCc1c(-c3noc4c3CCc3cc(OC)ccc3-4)noc1-2`, the GI50 is > 100 µM (inactive) with T47D; 40.4 µM (inactive) with HCC 2998; > 100 µM (inactive) in the test with SN12C; > 100 µM (inactive) in the test with MCF7; > 100 µM (inactive) in the test with KM12; > 100 µM (inactive) in the test with SK-MEL-5. The GI50 in the test with HOP-92, in the test with A549, with NCI-H23, with Malme-3M, in the test on SF-539 and with MDA-N was > 100 µM (inactive) each time. Further, the GI50 with EKVX was 53.1 µM (inactive); in the test on HCT-116, > 100 µM (inactive); in the test with NCI-H226 it was > 100 µM (inactive); in the test with ACHN it was > 100 µM (inactive); in the test on MOLT-4 it was > 100 µM (inactive); with SNB-75, > 100 µM (inactive). In addition, the GI50 with UACC-257 and in the test with TK-10 was > 100 µM (inactive) each time.
